≈ marks a conversion by molar mass, not a printed value. Read-outs that look alike come from different tables or passages of the source.
Experiments:
[1] = system: Streptococcus pyogenes C203; test: ED50 in mice experimentally infected with S. pyogenes C203 (Table VIII); type: in vivo
Procedure: The C-23 modified derivatives of OMT of this invention have shown in vivo antimicrobial activity against experimental infections. When two doses of test compound were administered to mice experimentally infected with a gram-positive bacterium, S. pyogenes C203, the activity observed was measured as an ED50 value [effective dose in mg/kg to protect 50% of the test animals: see Warren Wick, et al., J. Bacteriol. 81, 233-235 (1961)].

[2] = system: Staphylococcus epidermidis EPI2; test: MIC, standard agar-dilution assay (Table V); type: cell-based; conditions: Staphylococcus epidermidis, EPI2
Procedure: (§1) Especially noteworthy is the improved activity against gram-negative bacteria for several derivatives when compared to the activity of OMT. […] The MIC's in Tables V and VI were determined by standard agar-dilution assays. The MIC's in Table VII were obtained using a conventional broth-dilution microtiter test.

Streptococcus Group 9960 = test: MIC, standard agar-dilution assay (Table V); type: cell-based; conditions: GROUP9960
Procedure: as §1

[3] = system: Staphylococcus aureus X400; test: MIC, standard agar-dilution assay (Table V); type: cell-based; conditions: Staphylococcus aureus, X400
Procedure: as §1

[4] = system: Staphylococcus aureus S13E; test: MIC, standard agar-dilution assay (Table V); type: cell-based; conditions: Staphylococcus aureus, S13E
Procedure: as §1

[5] = system: Streptococcus Group D X66; test: MIC, standard agar-dilution assay (Table V); type: cell-based
Procedure: as §1

Escherichia coli EC14 = test: MIC, standard agar-dilution assay (Table V); type: cell-based; conditions: Escherichia coli; E. coli EC14; agar dilution; read-out: MIC
How it was run: (§2)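 Growth inhibition in liquid medium, in a routine microtiter broth-dilution series, gave the MIC against staphylococci and pasteurellae; the gram-negative enteric strain was tested by conventional agar dilution instead.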

[6] = system: Klebsiella pneumoniae KAE; test: MIC, standard agar-dilution assay (Table V); type: cell-based; conditions: Klebsiella pneumoniae
How it was run: as §2

Shigella sonnei N9 = test: MIC, standard agar-dilution assay (Table V); type: cell-based
How it was run: as §2

[7] = system: Staphylococcus aureus X1.1; test: MIC, standard agar-dilution assay (Table V); type: cell-based; conditions: Staphylococcus aureus
Procedure: as §1

[8] = system: Klebsiella pneumoniae X26; test: MIC, standard agar-dilution assay (Table V); type: cell-based; conditions: Klebsiella pneumoniae
Procedure: as §1

[9] = system: Staphylococcus aureus V41; test: MIC, standard agar-dilution assay (Table V); type: cell-based; conditions: Staphylococcus aureus, V41
Procedure: as §1

[10] = system: Staphylococcus epidermidis EPI1; test: MIC, standard agar-dilution assay (Table V); type: cell-based; conditions: Staphylococcus epidermidis
Procedure: as §1

Escherichia coli N10 = test: MIC, standard agar-dilution assay (Table V); type: cell-based; conditions: Escherichia coli
How it was run: as §2

[11] = system: Salmonella heidelberg X514; test: MIC, standard agar-dilution assay (Table VI); type: cell-based; conditions: Salmonella enterica, X514
Procedure: as §1

Proteus morganii PR15 = test: MIC, standard agar-dilution assay (Table VI); type: cell-based; conditions: Morganella morganii, PR15
Procedure: as §1

[12] = system: Klebsiella pneumoniae X68; test: MIC, standard agar-dilution assay (Table VI); type: cell-based; conditions: X68
Procedure: as §1

Proteus rettgeri C24 = test: MIC, standard agar-dilution assay (Table VI); type: cell-based; conditions: Providencia rettgeri, P. rettgeri C24
Procedure: as §1

Salmonella typhi 1335 = test: MIC, standard agar-dilution assay (Table VI); type: cell-based; conditions: Salmonella enterica
Procedure: as §1

Proteus inconstans PR33 = test: MIC, standard agar-dilution assay (Table VI); type: cell-based; conditions: Providencia alcalifaciens
Procedure: as §1

Proteus rettgeri PR7 = test: MIC, standard agar-dilution assay (Table VI); type: cell-based; conditions: Providencia rettgeri
Procedure: as §1

[13] = system: Pseudomonas aeruginosa Ps18; test: MIC, standard agar-dilution assay (Table VI); type: cell-based
Procedure: as §1

Serratia marcescens X99 = test: MIC, standard agar-dilution assay (Table VI); type: cell-based; conditions: X99
Procedure: as §1

[14] = system: Pseudomonas aeruginosa X239; test: MIC, standard agar-dilution assay (Table VI); type: cell-based; conditions: X239
Procedure: as §1

[15] = system: Pasteurella multocida 68C; test: MIC, broth-dilution microtiter test (Table VII); type: cell-based; conditions: Pasteurella multocida; P. multocida 68C; broth-dilution microtiter; read-out: MIC
How it was run: (§3)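 Conventional dilution MICs: agar for Enterobacter, microtiter broth for Staphylococcus and Pasteurella.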

Staphylococcus aureus = test: MIC, broth-dilution microtiter test (Table VII); type: cell-based; conditions: Staphylococcus aureus; S. aureus; broth-dilution microtiter; read-out: MIC
How it was run: as §3

[16] = system: Pasteurella multocida 22A; test: MIC, broth-dilution microtiter test (Table VII); type: cell-based; conditions: Pasteurella multocida; P. multocida 22A; broth-dilution microtiter; read-out: MIC
How it was run: as §3

[17] = system: Pasteurella hemolytica 41D; test: MIC, broth-dilution microtiter test (Table VII); type: cell-based; conditions: Pasteurella, P. hemolytica 41D, read-out: MIC
How it was run: as §3

Mycoplasma hyorhinis = test: MIC, broth-dilution microtiter test (Table VII); type: cell-based; conditions: M. hyorhinis; broth-dilution microtiter; read-out: MIC
Procedure: as §1

[18] = system: Pasteurella multocida 60A; test: MIC, broth-dilution microtiter test (Table VII); type: cell-based; conditions: Pasteurella multocida; P. multocida 60A, avian isolate; broth-dilution microtiter; read-out: MIC
How it was run: as §3

[19] = system: Pasteurella multocida 40G; test: MIC, broth-dilution microtiter test (Table VII); type: cell-based; conditions: Pasteurella multocida; P. multocida 40G; broth-dilution microtiter; read-out: MIC
How it was run: as §3

[20] = system: Pasteurella hemolytica 22C; test: MIC, broth-dilution microtiter test (Table VII); type: cell-based; conditions: Pasteurella, P. hemolytica 22C, read-out: MIC
How it was run: as §3

Mycoplasma synoviae = test: MIC, broth-dilution microtiter test (Table VII); type: cell-based; conditions: Mycoplasmopsis synoviae; M. synoviae; broth-dilution microtiter; read-out: MIC
Procedure: as §1

[21] = system: Pasteurella multocida 17E; test: MIC, broth-dilution microtiter test (Table VII); type: cell-based; conditions: Pasteurella multocida; P. multocida 17E, bovine isolate; broth-dilution microtiter; read-out: MIC
How it was run: as §3

Streptococcus sp. 80 = test: MIC, broth-dilution microtiter test (Table VII); type: cell-based; conditions: Streptococcus sp. 80; broth-dilution microtiter; read-out: MIC
Procedure: as §1

Mycoplasma gallisepticum = test: MIC, broth-dilution microtiter test (Table VII); type: cell-based; conditions: Mycoplasmoides gallisepticum; M. gallisepticum; broth-dilution microtiter; read-out: MIC
Procedure: as §1

[22] = system: Pasteurella hemolytica 23C; test: MIC, broth-dilution microtiter test (Table VII); type: cell-based; conditions: Pasteurella, P. hemolytica 23C, read-out: MIC
How it was run: as §3

[23] = C203, sc, mice, subcutaneous, doses given 1 and 4 hours postinfection, read-out: ED50, Subcutaneous

| Compound | ED50 ([1]; C203, po, read-out: ED50, Oral) [mg/kg] | ED50 [1, 23] [mg/kg] | MIC [2] [µg/mL] | MIC [3] [µg/mL] | MIC [4] [µg/mL] | MIC (Escherichia coli EC14) [µg/mL] | MIC (Shigella sonnei N9) [µg/mL] | MIC [9] [µg/mL] | MIC [11] [µg/mL] | MIC (Proteus morganii PR15) [µg/mL] | MIC [12] [µg/mL] | MIC (Proteus rettgeri C24) [µg/mL] | MIC (Salmonella typhi 1335) [µg/mL] | MIC (Serratia marcescens X99) [µg/mL] | MIC [14] [µg/mL] | MIC [15] [µg/mL] | MIC (Staphylococcus aureus) [µg/mL] | MIC [16] [µg/mL] | MIC [17] [µg/mL] | MIC (Mycoplasma hyorhinis) [µg/mL] | other results |
| --- | --- | --- | --- | --- | --- | --- | --- | --- | --- | --- | --- | --- | --- | --- | --- | --- | --- | --- | --- | --- | --- |
| CCC1OC(=O)CC(O)C(C)C(OC2OC(C)C(O)C(N(C)C)C2O)C(CC=O)CC(C)C(=O)C=CC(C)=CC1CSC(C)=O (stereo not shown) [Compound 7, 23-Deoxy-23-(acetyl)thio-OMT] | > 100 | 21.4 | 0.125 (≈ 0.191 µM) | 0.25 (≈ 0.381 µM) | 0.125 (≈ 0.191 µM) | 64 (≈ 97.6 µM) | 64 (≈ 97.6 µM) | 0.25 (≈ 0.381 µM) | > 128 | > 128 | > 128 | 64 (≈ 97.6 µM) | > 128 | > 128 | > 128 | 1.56 (≈ 2.38 µM) | 0.39 (≈ 0.595 µM) | 1.56 (≈ 2.38 µM) | 6.25 (≈ 9.53 µM) | 6.25 (≈ 9.53 µM) | MIC (Streptococcus Group 9960): 0.25 µg/mL (≈ 0.381 µM); MIC ([5]; Streptococcus Group D X66, agar dilution, read-out: MIC): 0.5 µg/mL (≈ 0.762 µM); MIC [6]: > 128 µg/mL; MIC ([7]; X1.1): 0.25 µg/mL (≈ 0.381 µM); MIC ([8]; X26): 4 µg/mL (≈ 6.1 µM); MIC ([10]; EPI1): 0.125 µg/mL (≈ 0.191 µM); MIC (Escherichia coli N10; N10): 64 µg/mL (≈ 97.6 µM); MIC (Proteus inconstans PR33; PR33): > 128 µg/mL; MIC (Proteus rettgeri PR7; PR7): > 128 µg/mL; MIC ([13]; PS18): > 128 µg/mL; MIC [18]: 3.12 µg/mL (≈ 4.76 µM); MIC [19]: 0.78 µg/mL (≈ 1.19 µM); MIC [20]: 6.25 µg/mL (≈ 9.53 µM); MIC (Mycoplasma synoviae): ≤ 0.05 µg/mL; MIC [21]: 3.12 µg/mL (≈ 4.76 µM); MIC (Streptococcus sp. 80): 0.39 µg/mL (≈ 0.595 µM); MIC (Mycoplasma gallisepticum): 0.19 µg/mL (≈ 0.29 µM); MIC [22]: 6.25 µg/mL (≈ 9.53 µM) |
| CCC1OC(=O)CC(O)C(C)C(OC2OC(C)C(O)C(N(C)C)C2O)C(CC=O)CC(C)C(=O)C=CC(C)=CC1CN=[N+]=[N-] (stereo not shown) [Compound 8, 23-Deoxy-23-azido-OMT] | > 100 | 6.3 | 0.25 (≈ 0.401 µM) | 0.25 (≈ 0.401 µM) | 0.25 (≈ 0.401 µM) | 32 (≈ 51.4 µM) | 32 (≈ 51.4 µM) | 0.25 (≈ 0.401 µM) | 64 (≈ 103 µM) | 64 (≈ 103 µM) | 64 (≈ 103 µM) | 32 (≈ 51.4 µM) | 64 (≈ 103 µM) | 64 (≈ 103 µM) | 64 (≈ 103 µM) | 1.56 (≈ 2.5 µM) | ≤ 0.78 | 1.56 (≈ 2.5 µM) | 6.25 (≈ 10 µM) | 3.12 (≈ 5.01 µM) | MIC (Streptococcus Group 9960; Streptococcus Group 9960, agar dilution, read-out: MIC): 0.5 µg/mL (≈ 0.803 µM); MIC [5]: 0.25 µg/mL (≈ 0.401 µM); MIC ([6]; K. pneumoniae KAE, agar dilution, read-out: MIC): > 128 µg/mL; MIC ([7]; S. aureus X1.1, agar dilution, read-out: MIC): 0.125 µg/mL (≈ 0.201 µM); MIC ([8]; K. pneumoniae X26, agar dilution, read-out: MIC): 4 µg/mL (≈ 6.42 µM); MIC ([10]; S. epidermidis EPI1, agar dilution, read-out: MIC): 0.125 µg/mL (≈ 0.201 µM); MIC (Escherichia coli N10; E. coli N10, agar dilution, read-out: MIC): 32 µg/mL (≈ 51.4 µM); MIC (Proteus inconstans PR33; P. inconstans PR33, agar dilution, read-out: MIC): > 128 µg/mL; MIC (Proteus rettgeri PR7; P. rettgeri PR7, agar dilution, read-out: MIC): 32 µg/mL (≈ 51.4 µM); MIC ([13]; P. aeruginosa Ps18, agar dilution, read-out: MIC): 32 µg/mL (≈ 51.4 µM); MIC [18]: 3.12 µg/mL (≈ 5.01 µM); MIC [19]: 1.56 µg/mL (≈ 2.5 µM); MIC [20]: 6.25 µg/mL (≈ 10 µM); MIC (Mycoplasma synoviae): 0.39 µg/mL (≈ 0.626 µM); MIC [21]: 1.56 µg/mL (≈ 2.5 µM); MIC (Streptococcus sp. 80): ≤ 0.78 µg/mL; MIC (Mycoplasma gallisepticum): 0.39 µg/mL (≈ 0.626 µM); MIC [22]: 6.25 µg/mL (≈ 10 µM) |

Reference: patent publication US4459290A, “C-23-Modified derivatives of OMT, pharmaceutical compositions and method of use” (priority 1982, dated 1984)
